≈ marks a conversion by molar mass, not a printed value. Read-outs that look alike come from different tables or passages of the source. Starred links: 1 amine or outer side, 2 acyl side, 3 side chain; linkers in the order of their positions; H or OH if unused. Positions of bridges follow the written chain, without caps; N, C: chain ends. Residues, ends and D or L forms follow the SMILES beside them. *: point of attachment. C18 diacid = O=C(O)CCCCCCCCCCCCCCCCC(=O)*; γGlu = O=C(O)[C@H](CCC(=O)[*:2])N[*:1]; X1 = O=C(CCCCCCCCCCCCCCCCc1nnn[nH]1)*; AEEA = NCCOCCOCC(=O)O
How the values were obtained:
[1] = Solubility of CNP compounds at pH 4.0 and pH 6.5; format: physicochemical
In short: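 Freeze-dried peptide was brought to a nominal ≥4000-5000 nmol/mL in 5 mM sodium acetate, 250 mM glycerol (pH 4.0) or in 8 mM sodium phosphate, 23 mg/mL glycerol (pH 6.5 via NaOH titration). Samples were equilibrated at room temperature overnight if undissolved, and supernatant concentration was measured by CAD.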

[2] = PK of CNP compounds after i.v. and s.c. administration to rats; details: male, Sprague Dawley, in vivo, rat; for clearance: read-out: Cl (L/hr/kg), i.v. administration (converted); for bioavailability: s.c. bioavailability, read-out: F (%), s.c. administration
In short: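 Male Sprague Dawley rats (n=4-6) were dosed at 300 nmol/kg s.c. or 100 nmol/kg i.v., formulated at pH 7.4 or 4.0, and sampled up to 72 h. Plasma levels were measured by TF-LC-MS against calibrators from 0.5 to 2000 nM. Non-compartmental PK used dose-normalized AUC for bioavailability, with values given as means.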

[3] = 8 mM sodium phosphate, 23 mg/mL glycerol, pH 6.5, room temperature, read-out: Solubility at pH 6.5
[4] = iv, i.v., about 100 nmol/kg, read-out: T½ (hr), i.v. administration (converted)
[5] = sc, s.c., about 300 nmol/kg, read-out: T½ (hr), s.c. administration (converted)
[6] = 5 mM sodium acetate, 250 mM glycerol, pH 4.0, room temperature, read-out: Solubility at pH 4.0

| Structure (SMILES) | solubility [1, 3] [mM] | clearance ([2]; iv, i.v., about 100 nmol/kg) [L/h/kg] | half-life [2, 4] [h] | bioavailability ([2]; sc, about 300 nmol/kg) [%] | half-life [2, 5] [h] | solubility [1, 6] [mM] |
| --- | --- | --- | --- | --- | --- | --- |
| CC[C@H](C)[C@@H]1NC(=O)[C@H](CCCNC(=N)N)NC(=O)[C@H](CC(=O)O)NC(=O)[C@H](CC(C)C)NC(=O)[C@@H]2CCCN2C(=O)[C@H](CC(C)C)NC(=O)CNC(=O)[C@H](Cc2ccccc2)NC(=O)[C@@H](NC(=O)CNC(=O)[C@H](CCCCN)NC(=O)[C@H](CO)NC(=O)[C@@H](NC(=O)CNC(=O)[C@@H](NC(=O)[C@H](Cc2c[nH]cn2)NC(=O)[C@H](CCC(N)=O)NC(=O)[C@H](C)NC(=O)CNC(=O)[C@H](Cc2c[nH]cn2)NC(=O)[C@H](Cc2ccc(O)cc2)NC(=O)[C@H](CCCCN)NC(=O)[C@H](CCCNC(=N)N)NC(=O)[C@H](C)NC(=O)COCCOCCNC(=O)COCCOCCNC(=O)CC[C@H](NC(=O)CC[C@H](NC(=O)CC[C@H](NC(=O)CCCCCCCCCCCCCCCCC(=O)O)C(=O)O)C(=O)O)C(=O)O)[C@@H](C)O)C(C)C)CSSC[C@@H](C(=O)O)NC(=O)CNC(=O)[C@H](CC(C)C)NC(=O)CNC(=O)[C@H](CO)NC(=O)[C@H](CC(C)C)NC(=O)[C@H](CO)NC(=O)CNC1=O [compound 1420] ({C18 diacid-γGlu-γGlu-γGlu-AEEA-AEEA}-ARKYHGAQHTGVSKGCFGLPLDRIGSLSGLGC-OH; disulfide 16-32) | 1.41 (≈ 6 mg/mL) | 0.00764 | 8.34 | 49.7 | 9.47 |  |
| CC[C@H](C)[C@@H]1NC(=O)[C@H](CCCNC(=N)N)NC(=O)[C@H](CC(=O)O)NC(=O)[C@H](CC(C)C)NC(=O)[C@@H]2CCCN2C(=O)[C@H](CC(C)C)NC(=O)CNC(=O)[C@H](Cc2ccccc2)NC(=O)[C@@H](NC(=O)CNC(=O)[C@H](CCC(N)=O)NC(=O)[C@H](CO)NC(=O)[C@H](CC(C)C)NC(=O)CNC(=O)[C@H](CO)NC(=O)[C@H](CCCCN)NC(=O)[C@H](CCC(N)=O)NC(=O)[C@H](C)NC(=O)CNC(=O)[C@H](Cc2c[nH]cn2)NC(=O)[C@H](Cc2ccc(O)cc2)NC(=O)[C@H](CCCCN)NC(=O)[C@H](CCCNC(=N)N)NC(=O)[C@H](C)NC(=O)COCCOCCNC(=O)COCCOCCNC(=O)CC[C@H](NC(=O)CC[C@H](NC(=O)CCCCCCCCCCCCCCCCc2nnn[nH]2)C(=O)O)C(=O)O)CSSC[C@@H](C(=O)O)NC(=O)CNC(=O)[C@H](CC(C)C)NC(=O)CNC(=O)[C@H](CO)NC(=O)[C@H](CC(C)C)NC(=O)[C@H](CO)NC(=O)CNC1=O [compound 1426] ({X1-γGlu-γGlu-AEEA-AEEA}-ARKYHGAQKSGLSQGCFGLPLDRIGSLSGLGC-OH; disulfide 16-32) |  | 0.00348 | 9.96 |  |  | 11.2 (≈ 46.6 mg/mL) |
| CC[C@H](C)[C@@H]1NC(=O)[C@H](CCCNC(=N)N)NC(=O)[C@H](CC(=O)O)NC(=O)[C@H](CC(C)C)NC(=O)[C@@H]2CCCN2C(=O)[C@H](CC(C)C)NC(=O)CNC(=O)[C@H](Cc2ccccc2)NC(=O)[C@@H](NC(=O)CNC(=O)[C@H](CCC(N)=O)NC(=O)[C@H](CO)NC(=O)CNC(=O)CNC(=O)[C@H](CCCCN)NC(=O)[C@H](CCCCN)NC(=O)[C@H](CCC(N)=O)NC(=O)[C@H](C)NC(=O)CNC(=O)[C@H](Cc2c[nH]cn2)NC(=O)[C@H](Cc2ccc(O)cc2)NC(=O)COCCOCCNC(=O)COCCOCCNC(=O)COCCOCCNC(=O)COCCOCCNC(=O)CC[C@H](NC(=O)CC[C@H](NC(=O)CCCCCCCCCCCCCCCCC(=O)O)C(=O)O)C(=O)O)CSSC[C@@H](C(=O)O)NC(=O)CNC(=O)[C@H](CC(C)C)NC(=O)CNC(=O)[C@H](CO)NC(=O)[C@H](CC(C)C)NC(=O)[C@H](CO)NC(=O)CNC1=O [compound 1434] ({C18 diacid-γGlu-γGlu-AEEA-AEEA-AEEA-AEEA}-YHGAQKKGGSQGCFGLPLDRIGSLSGLGC-OH; disulfide 13-29) | 8.51 (≈ 34.4 mg/mL) | 0.00764 | 8.34 |  |  |  |
| CC[C@H](C)[C@@H]1NC(=O)[C@H](CCCNC(=N)N)NC(=O)[C@H](CC(=O)O)NC(=O)[C@H](CC(C)C)NC(=O)[C@@H]2CCCN2C(=O)[C@H](CC(C)C)NC(=O)CNC(=O)[C@H](Cc2ccccc2)NC(=O)[C@@H](NC(=O)CNC(=O)[C@H](CCC(N)=O)NC(=O)[C@H](CO)NC(=O)[C@H](CO)NC(=O)CNC(=O)[C@H](CCCCN)NC(=O)[C@H](CCCCN)NC(=O)[C@H](CCC(N)=O)NC(=O)[C@H](C)NC(=O)CNC(=O)[C@@H]2CCCN2C(=O)[C@H](C)NC(=O)[C@H](CCC(N)=O)NC(=O)CNC(=O)COCCOCCNC(=O)COCCOCCNC(=O)CC[C@H](NC(=O)CCCCCCCCCCCCCCCCC(=O)O)C(=O)O)CSSC[C@@H](C(=O)O)NC(=O)CNC(=O)[C@H](CC(C)C)NC(=O)CNC(=O)[C@H](CO)NC(=O)[C@H](CC(C)C)NC(=O)[C@H](CO)NC(=O)CNC1=O [compound 9384] ({C18 diacid-γGlu-AEEA-AEEA}-GQAPGAQKKGSSQGCFGLPLDRIGSLSGLGC-OH; disulfide 15-31; C-terminus assumed) | 7.56 (≈ 28 mg/mL) | 0.00493 | 9.15 | 49.7 | 9.47 |  |
| CC[C@H](C)[C@@H]1NC(=O)[C@H](CCCNC(=N)N)NC(=O)[C@H](CC(=O)O)NC(=O)[C@H](CC(C)C)NC(=O)[C@@H]2CCCN2C(=O)[C@H](CC(C)C)NC(=O)CNC(=O)[C@H](Cc2ccccc2)NC(=O)[C@@H](NC(=O)CNC(=O)[C@H](CCC(N)=O)NC(=O)[C@H](CO)NC(=O)[C@H](CC(C)C)NC(=O)CNC(=O)[C@H](CCCCN)NC(=O)[C@H](CCCCN)NC(=O)[C@H](CCC(N)=O)NC(=O)[C@H](C)NC(=O)CNC(=O)[C@H](CCCCN)NC(=O)[C@H](Cc2ccc(O)cc2)NC(=O)[C@H](CCCCN)NC(=O)[C@H](CCCNC(=N)N)NC(=O)[C@H](C)NC(=O)COCCOCCNC(=O)COCCOCCNC(=O)COCCOCCNC(=O)COCCOCCNC(=O)CC[C@H](NC(=O)CC[C@H](NC(=O)CC[C@H](NC(=O)CC[C@H](NC(=O)CC[C@H](NC(=O)CCCCCCCCCCCCCCCCC(=O)O)C(=O)O)C(=O)O)C(=O)O)C(=O)O)C(=O)O)CSSC[C@@H](C(=O)O)NC(=O)CNC(=O)[C@H](CC(C)C)NC(=O)CNC(=O)[C@H](CO)NC(=O)[C@H](CC(C)C)NC(=O)[C@H](CO)NC(=O)CNC1=O [compound 9407] ({C18 diacid-γGlu-γGlu-γGlu-γGlu-γGlu-AEEA-AEEA-AEEA-AEEA}-ARKYKGAQKKGLSQGCFGLPLDRIGSLSGLGC-OH; disulfide 16-32) | 6.69 (≈ 32.3 mg/mL) | 0.00515 | 15.2 | 37.2 | 14.9 |  |
| CC[C@H](C)[C@@H]1NC(=O)[C@H](CCCNC(=N)N)NC(=O)[C@H](CC(=O)O)NC(=O)[C@H](CC(C)C)NC(=O)[C@@H]2CCCN2C(=O)[C@H](CC(C)C)NC(=O)CNC(=O)[C@H](Cc2ccccc2)NC(=O)[C@@H](NC(=O)CNC(=O)[C@H](CCC(N)=O)NC(=O)[C@H](CO)NC(=O)CNC(=O)CNC(=O)[C@H](CCCCN)NC(=O)[C@H](CCCCN)NC(=O)[C@H](CCC(N)=O)NC(=O)[C@H](C)NC(=O)CNC(=O)[C@H](CCCCN)NC(=O)[C@H](Cc2ccc(O)cc2)NC(=O)COCCOCCNC(=O)COCCOCCNC(=O)COCCOCCNC(=O)COCCOCCNC(=O)CC[C@H](NC(=O)CC[C@H](NC(=O)CCCCCCCCCCCCCCCCC(=O)O)C(=O)O)C(=O)O)CSSC[C@@H](C(=O)O)NC(=O)CNC(=O)[C@H](CC(C)C)NC(=O)CNC(=O)[C@H](CO)NC(=O)[C@H](CC(C)C)NC(=O)[C@H](CO)NC(=O)CNC1=O [compound 9435] ({C18 diacid-γGlu-γGlu-AEEA-AEEA-AEEA-AEEA}-YKGAQKKGGSQGCFGLPLDRIGSLSGLGC-OH; disulfide 13-29; C-terminus assumed) | 2.36 (≈ 9.5 mg/mL) | 0.00458 | 10.4 |  |  | 7.42 (≈ 29.9 mg/mL) |
| CC[C@H](C)[C@@H]1NC(=O)[C@H](CCCNC(=N)N)NC(=O)[C@H](CC(=O)O)NC(=O)[C@H](CC(C)C)NC(=O)[C@@H]2CCCN2C(=O)[C@H](CC(C)C)NC(=O)CNC(=O)[C@H](Cc2ccccc2)NC(=O)[C@@H](NC(=O)CNC(=O)[C@H](CO)NC(=O)[C@H](CO)NC(=O)[C@H](CC(C)C)NC(=O)CNC(=O)[C@H](CCCCN)NC(=O)[C@H](CCCCN)NC(=O)[C@H](CCC(N)=O)NC(=O)[C@H](C)NC(=O)CNC(=O)[C@H](CCCCN)NC(=O)[C@H](Cc2ccc(O)cc2)NC(=O)[C@H](CCCCN)NC(=O)[C@H](CCCNC(=N)N)NC(=O)[C@H](C)NC(=O)[C@H](CCC(N)=O)NC(=O)[C@@H]2CCCN2C(=O)[C@H](Cc2c[nH]cn2)NC(=O)[C@H](CCC(=O)O)NC(=O)[C@H](CCC(N)=O)NC(=O)CC[C@H](NC(=O)CC[C@H](NC(=O)CC[C@H](NC(=O)CC[C@H](NC(=O)CC[C@H](NC(=O)CCCCCCCCCCCCCCCCC(=O)O)C(=O)O)C(=O)O)C(=O)O)C(=O)O)C(=O)O)CSSC[C@@H](C(=O)O)NC(=O)CNC(=O)[C@H](CC(C)C)NC(=O)CNC(=O)[C@H](CO)NC(=O)[C@H](CC(C)C)NC(=O)[C@H](CO)NC(=O)CNC1=O [compound 9482] ({C18 diacid-γGlu-γGlu-γGlu-γGlu-γGlu}-QEHPQARKYKGAQKKGLSSGCFGLPLDRIGSLSGLGC-OH; disulfide 21-37) | 5.32 (≈ 25.7 mg/mL) | 0.00549 | 14.5 | 71.5 | 18.6 | 0.099 (≈ 0.478 mg/mL) |
